Assay in all cases: DSF 100 kinase selectivity screen;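 also: compound tested at 20 µM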
Common to all, as to assay type: binding

Assay [1] has as its target T1, ~100 representative kinases (Homo sapiens, UniProt P53355).
T1 construct: Recombinant protein kinase domains with a concentration of 2 μM
The conditions noted are these: Protein DAPK1; average of three replicates. The method, then: (§1) Recombinant protein kinase domains with a concentration of 2 μM were mixed with a 20 μM compound solution in dimethyl sulfoxide (DMSO), 20 mM Hepes (pH 7.5), and 500 mM NaCl. SYPRO Orange (5000×, Invitrogen) was added as a fluorescence probe (1μl/ml). Subsequently, temperature-dependent protein unfolding profiles were measured using the QuantStudio 5 realtime PCR machine (Thermo Fisher Scientific, Waltham, MA, USA). […] The temperature was raised with a step rate of 3°C/min. […] Differences in melting temperature are given as ΔTm values in degrees Celsius. […]

In assay [2] the target is T2, ~100 representative kinases (Homo sapiens, UniProt Q5VT25).
T2 construct: Recombinant protein kinase domains with a concentration of 2 μM
T2 sequence (Q5VT25 whole entry, the tested form may be a part): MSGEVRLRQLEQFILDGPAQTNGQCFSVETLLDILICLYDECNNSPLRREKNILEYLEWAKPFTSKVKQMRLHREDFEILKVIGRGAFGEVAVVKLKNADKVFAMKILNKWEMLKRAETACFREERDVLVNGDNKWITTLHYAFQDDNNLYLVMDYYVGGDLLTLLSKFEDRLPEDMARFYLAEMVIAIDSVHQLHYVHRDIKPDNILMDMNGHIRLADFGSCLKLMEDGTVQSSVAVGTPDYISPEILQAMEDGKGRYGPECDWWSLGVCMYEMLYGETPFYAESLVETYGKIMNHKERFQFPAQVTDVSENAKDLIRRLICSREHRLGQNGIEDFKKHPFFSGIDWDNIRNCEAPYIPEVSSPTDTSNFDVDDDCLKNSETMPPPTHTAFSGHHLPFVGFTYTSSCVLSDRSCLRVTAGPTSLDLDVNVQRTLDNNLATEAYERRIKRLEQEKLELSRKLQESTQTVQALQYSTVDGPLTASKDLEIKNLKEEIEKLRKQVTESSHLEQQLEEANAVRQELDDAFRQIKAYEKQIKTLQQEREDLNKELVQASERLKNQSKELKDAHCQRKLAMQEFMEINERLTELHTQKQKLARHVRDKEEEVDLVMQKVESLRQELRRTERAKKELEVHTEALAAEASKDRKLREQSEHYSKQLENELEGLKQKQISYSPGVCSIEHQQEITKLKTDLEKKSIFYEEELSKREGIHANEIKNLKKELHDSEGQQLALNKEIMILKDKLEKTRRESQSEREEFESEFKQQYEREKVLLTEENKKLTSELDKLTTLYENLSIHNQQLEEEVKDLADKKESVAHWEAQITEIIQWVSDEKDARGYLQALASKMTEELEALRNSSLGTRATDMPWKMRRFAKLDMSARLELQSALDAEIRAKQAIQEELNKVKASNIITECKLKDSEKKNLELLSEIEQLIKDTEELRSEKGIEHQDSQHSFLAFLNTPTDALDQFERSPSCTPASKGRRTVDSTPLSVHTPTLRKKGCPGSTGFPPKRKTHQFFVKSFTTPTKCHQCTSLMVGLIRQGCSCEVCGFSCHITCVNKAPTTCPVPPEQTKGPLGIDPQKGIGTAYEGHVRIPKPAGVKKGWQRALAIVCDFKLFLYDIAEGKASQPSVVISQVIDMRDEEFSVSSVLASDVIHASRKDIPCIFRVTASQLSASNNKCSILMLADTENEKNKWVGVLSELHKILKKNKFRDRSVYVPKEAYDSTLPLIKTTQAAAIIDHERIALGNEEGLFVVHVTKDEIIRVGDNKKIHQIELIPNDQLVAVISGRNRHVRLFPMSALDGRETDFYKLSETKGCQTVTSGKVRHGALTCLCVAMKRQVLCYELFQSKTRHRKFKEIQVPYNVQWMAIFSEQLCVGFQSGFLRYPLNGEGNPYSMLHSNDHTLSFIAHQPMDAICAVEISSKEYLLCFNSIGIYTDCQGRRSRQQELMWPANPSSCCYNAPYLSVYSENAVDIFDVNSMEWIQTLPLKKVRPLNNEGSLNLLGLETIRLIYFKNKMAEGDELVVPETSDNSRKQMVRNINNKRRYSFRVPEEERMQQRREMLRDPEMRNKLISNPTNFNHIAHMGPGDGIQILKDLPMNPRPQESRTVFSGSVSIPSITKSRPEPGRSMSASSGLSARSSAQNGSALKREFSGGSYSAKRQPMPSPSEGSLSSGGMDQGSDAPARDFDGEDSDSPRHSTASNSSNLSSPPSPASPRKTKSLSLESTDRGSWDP
To be noted: Protein CDC42BPA; average of three replicates. On the procedure:
as §1

In assay [3] the target is T3, ~100 representative kinases (Homo sapiens, UniProt O14965).
T3 construct: Recombinant protein kinase domains with a concentration of 2 μM
T3 sequence (O14965 1-403): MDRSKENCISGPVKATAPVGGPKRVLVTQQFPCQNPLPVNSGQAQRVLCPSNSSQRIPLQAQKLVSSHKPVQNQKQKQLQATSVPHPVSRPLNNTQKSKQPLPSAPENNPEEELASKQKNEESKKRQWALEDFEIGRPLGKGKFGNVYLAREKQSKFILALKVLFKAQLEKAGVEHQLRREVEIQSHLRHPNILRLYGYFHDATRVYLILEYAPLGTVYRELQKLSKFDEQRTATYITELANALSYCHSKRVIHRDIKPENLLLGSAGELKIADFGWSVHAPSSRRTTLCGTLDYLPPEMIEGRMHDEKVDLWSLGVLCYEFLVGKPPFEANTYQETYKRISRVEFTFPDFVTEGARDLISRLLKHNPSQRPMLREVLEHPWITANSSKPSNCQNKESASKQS
To be noted: Protein STK6; DSF; average of three replicates. On the procedure:
as §1

For assay [4], the target named is T4, ~100 representative kinases (Homo sapiens, UniProt P49761).
T4 construct: Recombinant protein kinase domains with a concentration of 2 μM
T4 sequence (P49761 whole entry, the tested form may be a part): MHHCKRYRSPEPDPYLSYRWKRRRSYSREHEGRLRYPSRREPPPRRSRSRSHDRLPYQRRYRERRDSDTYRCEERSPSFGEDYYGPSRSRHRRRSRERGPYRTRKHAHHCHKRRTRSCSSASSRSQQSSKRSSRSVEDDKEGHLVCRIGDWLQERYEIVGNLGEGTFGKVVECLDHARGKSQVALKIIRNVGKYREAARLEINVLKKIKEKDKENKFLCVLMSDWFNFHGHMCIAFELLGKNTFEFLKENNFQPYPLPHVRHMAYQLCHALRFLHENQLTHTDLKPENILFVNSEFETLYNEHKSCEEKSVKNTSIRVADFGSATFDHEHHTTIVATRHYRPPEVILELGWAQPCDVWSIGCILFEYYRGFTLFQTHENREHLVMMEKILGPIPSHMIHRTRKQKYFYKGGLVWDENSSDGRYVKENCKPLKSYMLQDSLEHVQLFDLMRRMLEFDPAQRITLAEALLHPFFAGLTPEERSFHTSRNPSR
To be noted: Protein CLK3; average of three replicates. On the procedure: as §1

Assay [5] has as its target T5, ~100 representative kinases (Homo sapiens, UniProt Q9UEE5).
T5 construct: Recombinant protein kinase domains with a concentration of 2 μM
T5 sequence (Q9UEE5 1-414): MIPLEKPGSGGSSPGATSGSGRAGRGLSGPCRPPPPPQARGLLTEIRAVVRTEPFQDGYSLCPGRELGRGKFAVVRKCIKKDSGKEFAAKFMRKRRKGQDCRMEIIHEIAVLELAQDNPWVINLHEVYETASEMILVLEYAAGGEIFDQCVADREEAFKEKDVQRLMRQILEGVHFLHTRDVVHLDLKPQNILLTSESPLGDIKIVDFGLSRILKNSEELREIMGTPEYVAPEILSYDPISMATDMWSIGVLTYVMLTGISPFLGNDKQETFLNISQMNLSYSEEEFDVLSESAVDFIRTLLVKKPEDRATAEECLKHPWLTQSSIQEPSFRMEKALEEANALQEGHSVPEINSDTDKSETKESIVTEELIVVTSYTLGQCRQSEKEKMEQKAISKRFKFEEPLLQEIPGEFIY
The conditions noted are these: Protein STK17A; DSF; average of three replicates. The method, then:
as §1

The target of assay [6] is T6, ~100 representative kinases (Homo sapiens, UniProt P33981).
T6 construct: Recombinant protein kinase domains with a concentration of 2 μM
T6 sequence (P33981 1-857): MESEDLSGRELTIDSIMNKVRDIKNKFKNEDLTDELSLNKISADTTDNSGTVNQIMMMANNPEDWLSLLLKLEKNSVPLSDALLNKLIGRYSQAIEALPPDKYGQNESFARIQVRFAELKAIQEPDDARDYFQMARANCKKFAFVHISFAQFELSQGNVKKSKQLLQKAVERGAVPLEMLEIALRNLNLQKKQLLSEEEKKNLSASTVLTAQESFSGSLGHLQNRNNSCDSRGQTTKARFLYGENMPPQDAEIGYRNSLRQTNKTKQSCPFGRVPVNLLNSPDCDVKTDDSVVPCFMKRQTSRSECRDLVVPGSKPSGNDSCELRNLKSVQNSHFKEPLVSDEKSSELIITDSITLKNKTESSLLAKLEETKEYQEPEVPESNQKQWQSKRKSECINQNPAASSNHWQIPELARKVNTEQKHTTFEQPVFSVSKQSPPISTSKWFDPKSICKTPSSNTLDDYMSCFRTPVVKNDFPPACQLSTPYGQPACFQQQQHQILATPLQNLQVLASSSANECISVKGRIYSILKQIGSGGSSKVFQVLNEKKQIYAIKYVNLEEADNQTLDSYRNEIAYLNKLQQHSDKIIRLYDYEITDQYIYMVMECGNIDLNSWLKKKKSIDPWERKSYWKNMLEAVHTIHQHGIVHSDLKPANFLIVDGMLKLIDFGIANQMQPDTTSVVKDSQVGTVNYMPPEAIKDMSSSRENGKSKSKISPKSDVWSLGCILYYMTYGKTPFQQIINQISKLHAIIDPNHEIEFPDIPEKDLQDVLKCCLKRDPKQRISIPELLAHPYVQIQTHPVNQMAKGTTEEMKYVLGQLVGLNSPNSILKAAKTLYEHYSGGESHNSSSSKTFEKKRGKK
The conditions noted are these: Protein TTK; DSF; average of three replicates. On the procedure:
as §1

Assay [7] deals with T7, ~100 representative kinases (Homo sapiens, UniProt P45985).
T7 construct: Recombinant protein kinase domains with a concentration of 2 μM
T7 sequence (P45985 1-399): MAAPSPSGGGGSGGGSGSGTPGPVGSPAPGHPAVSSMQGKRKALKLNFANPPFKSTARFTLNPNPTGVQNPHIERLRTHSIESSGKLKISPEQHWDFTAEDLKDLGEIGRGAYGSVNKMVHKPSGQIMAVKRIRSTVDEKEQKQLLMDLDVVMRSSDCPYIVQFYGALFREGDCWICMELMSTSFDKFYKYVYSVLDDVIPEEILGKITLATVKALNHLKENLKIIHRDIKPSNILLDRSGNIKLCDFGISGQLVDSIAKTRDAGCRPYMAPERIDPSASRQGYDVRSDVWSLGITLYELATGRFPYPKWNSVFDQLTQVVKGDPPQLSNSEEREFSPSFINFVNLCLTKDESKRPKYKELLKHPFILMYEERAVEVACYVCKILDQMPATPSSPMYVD
The conditions noted are these: protein MAP2K4; average of three replicates. On the procedure:
as §1

T1 sequence (P53355 whole entry, the tested form may be a part): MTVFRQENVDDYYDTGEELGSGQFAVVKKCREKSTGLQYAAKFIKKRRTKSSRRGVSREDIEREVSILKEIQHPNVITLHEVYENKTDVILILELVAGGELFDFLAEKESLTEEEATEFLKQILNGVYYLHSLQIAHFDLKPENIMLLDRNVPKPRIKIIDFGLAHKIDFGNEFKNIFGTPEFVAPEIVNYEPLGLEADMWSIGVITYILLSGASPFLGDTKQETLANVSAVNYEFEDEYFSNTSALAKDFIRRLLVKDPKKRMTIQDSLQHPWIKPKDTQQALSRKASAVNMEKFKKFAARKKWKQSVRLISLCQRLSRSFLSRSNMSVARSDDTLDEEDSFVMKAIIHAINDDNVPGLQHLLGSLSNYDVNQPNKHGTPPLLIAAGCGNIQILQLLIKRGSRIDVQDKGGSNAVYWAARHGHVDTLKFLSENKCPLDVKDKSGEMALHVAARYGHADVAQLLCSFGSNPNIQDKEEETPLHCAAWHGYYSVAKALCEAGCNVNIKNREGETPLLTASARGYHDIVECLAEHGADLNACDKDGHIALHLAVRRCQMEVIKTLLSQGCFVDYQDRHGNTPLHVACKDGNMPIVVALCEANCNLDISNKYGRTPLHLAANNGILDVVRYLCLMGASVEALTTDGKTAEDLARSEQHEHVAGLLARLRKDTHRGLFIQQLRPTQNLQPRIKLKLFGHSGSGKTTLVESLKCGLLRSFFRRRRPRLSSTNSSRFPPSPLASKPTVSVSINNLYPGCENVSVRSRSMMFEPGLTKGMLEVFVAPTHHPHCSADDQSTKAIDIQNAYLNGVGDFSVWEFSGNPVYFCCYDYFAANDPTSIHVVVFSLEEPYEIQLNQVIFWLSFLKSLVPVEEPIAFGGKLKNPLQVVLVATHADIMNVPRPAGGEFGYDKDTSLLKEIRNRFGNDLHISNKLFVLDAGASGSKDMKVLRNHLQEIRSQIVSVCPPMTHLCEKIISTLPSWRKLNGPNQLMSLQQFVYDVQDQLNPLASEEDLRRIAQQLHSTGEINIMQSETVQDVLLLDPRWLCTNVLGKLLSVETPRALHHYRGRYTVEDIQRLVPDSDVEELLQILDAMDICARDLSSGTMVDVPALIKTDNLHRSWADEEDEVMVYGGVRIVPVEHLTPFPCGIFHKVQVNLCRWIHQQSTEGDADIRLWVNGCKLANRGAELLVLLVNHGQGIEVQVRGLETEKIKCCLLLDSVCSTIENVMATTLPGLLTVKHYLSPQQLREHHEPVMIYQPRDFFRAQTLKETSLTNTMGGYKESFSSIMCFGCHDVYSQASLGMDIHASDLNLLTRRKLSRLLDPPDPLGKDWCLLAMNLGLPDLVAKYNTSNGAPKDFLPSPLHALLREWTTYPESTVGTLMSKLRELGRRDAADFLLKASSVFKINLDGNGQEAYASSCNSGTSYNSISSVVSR

For the compound `COc1cc(C(=O)N2CCOCC2)c(F)cc1Nc1nc(N(C)C)c2c(Cl)c[nH]c2n1` [Compound 36], the dTm in assay [1] was 3.45 K; in assay [2] it was -0.93 K; in assay [3], 3.22 K; in assay [4] it was 2.75 K; in assay [5], 0.25 K; in assay [6], 10.39 K. Besides, the dTm in assay [7] was 10.31 K.

As to `COc1cc(S(C)(=O)=O)ccc1Nc1nc(N(C)C)c2c(Cl)c[nH]c2n1` [Compound 37], the dTm is listed as 0.93 K in assay [1]; -0.18 K in assay [2]; -0.19 K in assay [3]; 1.12 K in assay [4]; -0.19 K in assay [5]; 7.87 K in assay [6]. The compound also had a dTm in assay [7] of 4.74 K.

Consider `CCNc1nc(Nc2cc(F)c(C(=O)N3CCOCC3)cc2OC)ncc1C(F)(F)F` [GNE-7915], for which the dTm in assay [1] was 1.29 K; in assay [2], -0.72 K; in assay [3], 3.65 K; in assay [4] it was 1.84 K; in assay [5] it was 0.32 K; in assay [6] it was 6.53 K. For the same compound, the dTm in assay [7] stood at 1.26 K.

Regarding `Cc1ccc(C(=O)Nc2ccc(CN3CCN(C)CC3)c(C(F)(F)F)c2)cc1C#Cc1cnc2[nH]ncc2c1` [GZD-824, reference compound], the dTm is 0.59 K in assay [1]; -1.37 K in assay [2]; 3.67 K in assay [3]; 4.75 K in assay [4]; 0.16 K in assay [5]; 4.08 K in assay [6]. For the same compound, in assay [7], the dTm worked out at 1.62 K.

With `C[C@@H]1CN(c2cc(-c3n[nH]c4ccc(OC5(C)CC5)cc34)ncn2)C[C@H](C)O1` [MLi2], the dTm in assay [1] was 0.22 K; in assay [2], -0.93 K; in assay [3], 0.17 K; in assay [4] it was 3.51 K; in assay [5] it was -0.26 K; in assay [6], 5.63 K. Further, the dTm in assay [7] was found to be 0.87 K.

Consider `Cn1cc(-c2c[nH]c3ncnc(N4CCOCC4)c23)cc1C#N` [PFE-360], for which the dTm is on record as 0.54 K in assay [1]; -1.84 K in assay [2]; 8.08 K in assay [3]; 5.46 K in assay [4]; 0.43 K in assay [5]; 0.43 K in assay [6]. The dTm in assay [7] is given as 1.90 K.

Regarding `CNC(=O)c1cc(Oc2ccc(NC(=O)Nc3cc(C(C)(C)C)nn3-c3ccc4ncccc4c3)c(F)c2)ccn1` [Rebastinib, reference compound], the dTm in assay [1] is listed as -1.01 K; in assay [2] it was 0.18 K; in assay [3] it was 1.83 K; in assay [4], 8.68 K; in assay [5] it was 3.53 K; in assay [6] it was 8.07 K. Further, the dTm in assay [7] stood at 0.53 K.

These data come from publication PMC12136037, “Type II kinase inhibitors that target Parkinson’s disease–associated LRRK2” (Science Advances, 2025).
